For test [1], the target named is T1, USP7 over a panel of active DUBs (Homo sapiens, UniProt Q93009). In words: HA-Ub-VS labeling of active DUBs in HCT116 cell lysates. To be noted: for HA-Ub-VS-USP7 protein level: different doses (100 μM to 3 μM), 2 hours. On the set-up: endogenous in cells; host or cells: HCT116 (inducible USP7 shRNA line), non-denaturing lysate. It is filed as biochemical. An excerpt:
(§1) The C-terminally modified vinyl sulfone derivative of ubiquitin, UbVS, was clearly helpful for a direct visualization of active DUBs in cells. This tool, which binds covalently to the cysteine active site of deubiquitinating enzymes, was successfully applied to discover and characterize novel ubiquitin/ubiquitin-like proteases and to profile active deubiquitinating enzymes in normal, virus-infected, and malignant cells (Borodovsky et al., Chem Biol 2002, 9, 1149-1159, Hemelaar et al., Mol Cell Biol 2004, 24, 84-95, Ovaa et al., Proc Natl Acad Sci USA 2004 101, 2253-2258).
The HA-Ub-VS probe (Hemagglutin tag-Ubiquitin-Vinyl Sulfone) was used in this study to directly visualize the activity of all deubiquitinating enzymes from cell lysates. This tool was used to evaluate the activity/specificity of our small molecule compounds on USP7 relative to all deubiquitinating enzymes active in physiological conditions.
Inducible USP7 shRNA HCT116 cells (previously treated with or without Doxycycline (2 μg/ml) for 4 days) as well as HEK293 cells were harvested and lysed on ice with a non denaturating buffer containing Tris pH7.4, 50 mM; NaCl, 150 mM; MgCl2, 5 mM; EDTA, 0.5 mM; DTT, 2 mM; ATP, 2 mM; NP40, 0.5% and glycerol, 10%. Samples were incubated at 4° C. for 1 hour and clarified. Proteins were then quantified by Bradford method (Bio-Rad Protein Assay). 25 μg of proteins from native cell lysates were treated with compounds of examples 14 and 5 (from 100 μM to 3 μM) or with NEM (N-Ethylmaleimide, a thiol-reactive compound, 5 mM) for 2 hours at room temperature. The ubiquitin labeling reaction was initiated by the addition of HA-Ub-VS (8 μg/ml) in labeling buffer (Tris pH7.6, 50 mM; MgCl2, 5 mM; EDTA, 0.5 mM; DTT, 2 mM; ATP, 2 mM; sucrose, 250 mM) and incubated at room temperature for 30 min. Samples were next heated at 100° C. for 10 minutes and briefly sonicated. They were resolved by SDS-polyacrylamide gel electrophoresis (SDS-PAGE), transferred to a nitrocellulose membrane and probed with antibodies against USP7 (Bethyl Lab, A300-034A), HA (BabCO, MMS-101P), and actin (Sigma, A2066). Horseradish peroxidase (HRP)-conjugated anti-mouse (Jackson Laboratories, 115-035-003) or HRP-conjugated anti-rabbit (Cell Signaling, 7074) antibodies were used as secondary antibodies. Signals were detected by enhanced chemiluminescence (ECL; Amersham) according to the reagent manufacturer's instructions.

The test system of test [2] is HCT116 colon cancer cells. In words: HCT116 cell viability and proliferation assay (MTS). It is filed as cell-based. Conditions: HCT116, 72 hours, read-out: Cell viability (MTS): HCT116 GI50 Day3. Here is the method: HCT116 colon cancer cells were obtained from ATCC (American Type Culture Collection), and maintained in Mc Coy's 5A medium containing 10% FBS, 3 mM glutamine and 1% penicillin/streptomycin. Cells were incubated at 37° C. in a humidified atmosphere containing 5% CO2.
Cell viability was assayed using the MTS technique in 96-well culture plates (CellTiter 96® Aqueous Non-Radioactive Cell Proliferation Assay, Promega) according to the manufacturer's instructions. MTS (3-(4,5-dimethyl-thiazol-2-yl)-5-(3-carboxy-methoxyphenyl)-2-(4-sulfophenyl)-2H-tetra-zolium) is a MTT-derived tetrazolium that is reduced in metabolically active cells into a soluble, cell-permeant formazan. The amount of formazan, detected by its absorbance at 492 nm is proportional to the number of living, metabolically active cells.
10^3 HCT116 cells were seeded per well. 24 hours later, the medium was changed and the cells treated in triplicate with the concentrations of each compound from 100 μM to 50 nM. The compounds were diluted in 100% DMSO, whose final concentration on cells was kept at 0.5%.
Cells were incubated with the compounds for 72 hours, and their viability then assayed by the addition of MTS for 2 hours. Absorbance at 492 nm was measured directly from the 96-well culture plates. Gl50 (Growth Inhibition 50) concentrations for each compound were calculated using a sigmoidal variable slope fit (Prism 4.0, Graphpad Softwares). Values represent mean of three independent experiments.

Test [3] deals with T1, USP7 over a panel of active DUBs. Nature of the test: HA-Ub-VS labeling of active DUBs in HEK293 cell lysates. It is filed as biochemical. To be noted: different doses.
Source text: as §1
The HA-Ub-VS probe (Hemagglutin tag-Ubiquitin-Vinyl Sulfone) was used in this study to directly visualize the activity of all deubiquitinating enzymes from cell lysates. […]
Inducible USP7 shRNA HCT116 cells (previously treated with or without Doxycycline (2 μg/ml) for 4 days) as well as HEK293 cells were harvested and lysed on ice with a non denaturating buffer containing Tris pH7.4, 50 mM; NaCl, 150 mM; MgCl2, 5 mM; EDTA, 0.5 mM; DTT, 2 mM; ATP, 2 mM; NP40, 0.5% and glycerol, 10%. […] Proteins were then quantified by Bradford method (Bio-Rad Protein Assay). […] Signals were detected by enhanced chemiluminescence (ECL; Amersham) according to the reagent manufacturer's instructions.

The target of a further test is T2, USP7 (Homo sapiens, UniProt Q93009).
T2 construct: Full-length wild-type human USP7 and its catalytic mutant (cysteine 223 replaced by alanine, C223A) were produced as N-terminally His-tagged fusions; His (N); made in house; host or cells: Spodoptera frugiperda Sf9 (or High Five) insect cells, baculovirus pFastBac-HT-B
Nature of the test: USP7 activity assay (Ub-AMC substrate). It is filed as biochemical. To be noted: Ub-AMC 300 nM, USP7 100 pM, 30 min pre-incubation. An excerpt: The cDNA encoding USP7 was obtained by PCR amplification from placenta mRNA. USP7 cDNA was subcloned by PCR into a baculovirus expression vector (pFastBac-HT; Invitrogen). Full-length wild-type human USP7 and its catalytic mutant (cysteine 223 replaced by alanine, C223A) were produced as N-terminally His-tagged fusions in Spodoptera frugiperda cells (Sf9, Invitrogen), using the Bac-to-Bac Baculovirus system from Invitrogen according to the manufacturer's instructions. pFastBac-HT-B-USP7 was used to transform DH10bac cells (Invitrogen), and blue/white selection was carried out on X-gal/IPTG agar plates. Bacmid DNA was prepared by an alkaline lysis procedure. The integrity of the bacmid minipreps and their orientation were checked by PCR, using generic and specific primers. Sf9 insect cells were cultured in InsectXpress medium (Cambrex) at 27° C. and transfected with the corresponding bacmid, using GeneShuttle 40 (Q-BIOgen). Viruses were recovered in the supernatant 72 h after transfection. Viruses were amplified by infecting insect cells (Sf9 or High Five cells; invitrogen) in 50 ml InsectXpress medium in a 150 cm^2 cell culture flask with 500 μl of the supernatant from transfected Sf9 cells. Following the second round of amplification, infected cells were recovered by rapid SDS lysis, boiled for 5 min at 100° C., sonicated briefly and centrifuged for 20 min at 14,000 g. Expression levels in infected Sf9 cells were compared with those in uninfected cells. Fusion proteins were then allowed to bind to TALON beads (BD Biosciences, TALON metal affinity resin) for 30 min at 4° C. with gentle rocking. Beads were extensively washed (50 mM sodium phosphate buffer pH 7.0, 500 mM NaCl, 10 mM Imidazole, 0.5% Triton X-100 and 10% glycerol) and bound proteins were eluted in wash buffer supplemented with 250 mM Imidazole (Sigma). Eluted fractions were resolved on 4-12% NuPAGE gels (Novex, Invitrogen). Fractions containing high concentrations of purified proteins (purity >95%) were dialyzed (20 mM Tris HCl pH 7.6, 200 mM NaCl, 1 mM DTT, 1 mM EDTA and 10% glycerol) were aliquoted and snap frozen in liquid nitrogen before storage at −80° C.
USP7 was diluted in USP buffer (50 mM Tris HCl; 0.5 mM EDTA; 5 mM DTT; 0.01% Triton X-100; Bovine Serum Albumin 0.05 mg·ml^−1 pH7.6). Compounds stocks (10 mM) were stored at −20° C. in DMSO. Compounds were tested at different concentrations: from 200 μM to 91 nM.
Reactions were performed as duplicates in Black 384 well plates (small volumes microplates; Greiner; 10 μl final reaction volume). The substrate concentration for USP7 was 300 nM Ub-AMC (Chem. Biol., 2003, 10, p. 837-846) (Boston Biochem). The concentrations of the enzyme (USP7) in specificity assays was 100 pM. The concentrations were determined in order to perform specificity assays under initial velocities at fixed substrate concentration. Compounds were pre-incubated with enzymes for 30 minutes at 25° C. Reactions were initiated by addition of substrate to the plates containing the enzymes (+/− compounds) diluted in assay buffer. Reactions were incubated for 60 minutes at 37° C. Reactions were stopped by adding acetic acid (100 mM final). Readings were performed on a Pherastar Fluorescent Reader (BMG). λ
Emission 380 nm; λ Excitation=460 nm. Data (mean values +/− standard deviation) were analyzed as % of control (no compound) and plotted as percentage versus the Log of the compound concentration using GraphPad (Prism). Data were fitted to a sigmoidal model (variable slope).

pIC50: −log10 of the molar value. Where two headings read alike, the source gives them in different places.

T1 sequence (Q93009 whole entry): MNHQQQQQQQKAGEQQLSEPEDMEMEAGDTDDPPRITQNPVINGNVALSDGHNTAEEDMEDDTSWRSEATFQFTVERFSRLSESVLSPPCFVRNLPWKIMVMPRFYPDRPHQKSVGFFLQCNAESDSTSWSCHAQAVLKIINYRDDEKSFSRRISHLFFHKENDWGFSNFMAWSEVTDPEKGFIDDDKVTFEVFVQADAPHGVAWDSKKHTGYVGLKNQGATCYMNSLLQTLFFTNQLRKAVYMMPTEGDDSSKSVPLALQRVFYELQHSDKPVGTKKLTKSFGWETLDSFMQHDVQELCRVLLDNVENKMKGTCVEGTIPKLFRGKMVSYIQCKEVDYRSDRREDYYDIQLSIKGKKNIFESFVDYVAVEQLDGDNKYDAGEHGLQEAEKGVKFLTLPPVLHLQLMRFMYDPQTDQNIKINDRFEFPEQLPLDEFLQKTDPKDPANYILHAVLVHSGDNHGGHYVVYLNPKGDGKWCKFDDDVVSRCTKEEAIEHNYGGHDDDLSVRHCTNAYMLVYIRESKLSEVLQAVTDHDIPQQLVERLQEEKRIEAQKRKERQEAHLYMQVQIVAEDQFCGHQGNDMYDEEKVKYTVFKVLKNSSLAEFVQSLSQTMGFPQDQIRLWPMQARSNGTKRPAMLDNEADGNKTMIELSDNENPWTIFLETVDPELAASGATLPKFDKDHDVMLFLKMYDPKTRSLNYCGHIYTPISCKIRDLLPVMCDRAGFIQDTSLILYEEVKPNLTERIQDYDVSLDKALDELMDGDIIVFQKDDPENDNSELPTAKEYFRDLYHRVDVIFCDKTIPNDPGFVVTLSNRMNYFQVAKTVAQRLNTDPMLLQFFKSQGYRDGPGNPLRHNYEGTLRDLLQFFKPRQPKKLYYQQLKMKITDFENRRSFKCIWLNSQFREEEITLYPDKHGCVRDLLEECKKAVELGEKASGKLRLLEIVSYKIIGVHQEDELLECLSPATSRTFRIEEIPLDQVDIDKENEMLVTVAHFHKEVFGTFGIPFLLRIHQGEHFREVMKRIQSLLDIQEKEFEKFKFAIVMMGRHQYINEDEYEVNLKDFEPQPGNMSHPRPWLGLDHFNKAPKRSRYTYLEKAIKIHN

For the compound `CCN(CCCNC(=O)c1ccc2c(Cl)c3c(nc2c1)CCCC3)Cc1ccccc1` [Example 5, 9-Chloro-5,6,7,8-tetrahydro-acridine-3-carboxylic acid [3-(benzyl-ethyl-amino)-propyl]-amide], the HA-Ub-VS-USP7 protein level entry in test [1] is “specific and dose-dependent decrease”; in test [3] it was “also confirmed”. For the same compound, the GI50 in test [2] (Homo sapiens, HCT-116, 72 h) turned out to be 4 µM.
In the case of `CN(CCCNC(=O)c1ccc2c(Cl)c3c(nc2c1)CCCC3)Cc1ccccc1` [Example 14, 9-Chloro-5,6,7,8-tetrahydro-acridine-3-carboxylic acid [3-(benzyl-methyl-amino)-propyl]-amide], the HA-Ub-VS-USP7 protein level entry is “specific and dose-dependent decrease” in test [1]; “also confirmed” in test [3]. Also, in test [1] (fixed dose 50 μM, anti-HA immunoblot), the “HA-Ub-VS labeled DUB bands after treatment” value is “only one band was decreased”. In test [2] (Homo sapiens, HCT-116, 72 h), the concentration for 50% growth inhibition (GI50) was 4.1 µM.
`CCN(CC)CCNC(=O)c1ccc2c(Cl)c3c(nc2c1)CCCC3` [Example 26, chlorhydrate of 9-chloro-5,6,7,8-tetrahydro-acridine-3-carboxylic acid (2-diethylamino-ethyl)-amide] had a negative logarithm of the IC50 (pIC50) against USP7 of 4.52. In test [2], the GI50 was determined as 5.6 µM.
On to `CCN1C(=O)C=CC1=O` [NEM, N-Ethylmaleimide, reference compound], for which, in test [1] (NEM 5 mM), the “HA-Ub-VS labeling of the active form of DUBs” value was “inhibited”.

Usually GI50 stands for the concentration at which growth is held to half of that of the control. The term pIC50 denotes the negative decadic logarithm of the IC50, by convention in mol/L. Read a high pIC50 as a small IC50.
